IC50 data for 15 substances are collected here from US20260216355A1, “ANTIBODY-DRUG CONJUGATE FROM N-OXYCYCLOALKYL SUBSTITUTED CAMPTOTHECIN DERIVATIVE” (priority 2022, published 2026).

In assay [1] the test system is breast cancer cells MDA-MB-231. The assay can be described thus: In vitro inhibitory activity of ADC against tumor cell growth (CCK-8), MDA-MB-231. The format is cell-based, Human. The note with it: MDA-MB-231 cells, 6 days incubation. The source says:
(§1) Method for in vitro inhibitory activity assay of ADC: Human esophageal cancer cells OE-33, lung cancer cells NCI-H1975, and breast cancer cells MDA-MB-231 used for activity assays were respectively cultured in RPMI1640 (Cellmax), RPMI1640 (Cellmax), and DMEM (Cellmax) media containing 10% fetal bovine serum (FBS, Cellmax) to the exponential growth phase. After trypsinization, the cells were centrifuged, and the supernatant was discarded. The cells were resuspended with media and diluted to 3×10^4 cells/mL, 0.5×10^4 cells/mL and 1.5×10^4 cells/mL respectively. Then, 100 μL of each cell suspension was added to a 96-well cell culture plate, and the plate was returned to an incubator at 37° C. with 5% CO2 for overnight culture. The next day, the ADC to be tested was diluted to 2000 nM, 400 nM, 80 nM, 16 nM, 3.2 nM, 0.64 nM, 0.128 nM, and 0.026 nM using culture medium. The diluted ADC was added to a 96-well cell culture plate at 100 μL per well, with 3 replicates set for each concentration. For the negative control without ADC and the blank control, 100 μL of culture medium was added to each well. After the sample addition was finished, the plate was returned to the incubator at 37° C. with 5% CO2 for further incubation for 6 days. Upon completion of incubation, the cell culture plate was removed, and the medium in the plate was aspirated using a pipette. 100 μL of medium containing 10% CCK-8 was added to each well, followed by incubation at 37° C. for 3 h. After incubation, the plate was removed, protected from light, placed in a microplate reader, and the absorbance was measured at a test wavelength of 450 nm with a reference wavelength of 630 nm. Based on the absorbance values, the IC50 (Table 1) was calculated using four-parameter regression in GraphPad. The corresponding ADC drug containing Dxd was used as a positive control drug, which has the following structure: […]

Assay [2] concerns lung cancer cells NCI-H1975. Put plainly: In vitro inhibitory activity of ADC against tumor cell growth (CCK-8), NCI-H1975. It is filed as cell-based, Human. The note with it: 6 days incubation.
From the text: as §1

In assay [3] the test system is Human esophageal cancer cells OE-33. Put plainly: In vitro inhibitory activity of ADC against tumor cell growth (CCK-8), OE-33. The format is cell-based. The note with it: OE-33 cells, 6 days incubation.
From the text: as §1

For “20-O-(IP140B-AcPEG2-Gly-Val-Ala-Gly-NHNHC)-7-(N-(tetrahydropyran-4-yl)amino)ethyl-10,11-methylenedioxycamptothecin [ADC 18]”, the IC50 in assay [1], in assay [2] and in assay [3] was less than 5 nM throughout.

Regarding “7-(N-(IP140B-Ac-PEG2-Gly-Lys-PABC), N-((R)-tetrahydrofuran-3-yl)amino)ethyl-10,11-methylenedioxycamptothecin [ADC 14]”, the half-maximal inhibitory concentration (IC50) in assay [1], in assay [2] and in assay [3] was 5 to 50 nM in each case.

As for “7-(N-(IP140B-mc-Val-Cit-PABC), N-(tetrahydropyran-4-yl)amino)ethyl-10,11-methylenedioxycamptothecin [ADC 2]”, the figures for the IC50 in assay [1], in assay [2] and in assay [3] were 5 to 50 nM, less than 5 nM and 5 to 50 nM, respectively.

Consider “20-O-(IP140B-Ac-PEG4-daP-NHNHC)-7-(N-(tetrahydropyran-4-yl)amino)ethyl-10,11-methylenedioxycamptothecin [ADC 20]”, for which the IC50 in assay [1], in assay [2] and in assay [3] was less than 5 nM each time.

On to “7-(N-(HS627-mc-Val-Cit-PABC), N-(tetrahydropyran-4-yl)amino)ethyl-10,11-methylenedioxycamptothecin [ADC 1]”, for which the IC50 in assay [1] fell in the range of 50 to 500 nM; in assay [2] it was 5 to 50 nM; in assay [3], 5 to 50 nM.

For the substance “7-(N-(IP140B-AcPEG4-Gly-Lys-PABC), N-(tetrahydropyran-4-yl)amino)ethyl-10,11-methylenedioxycamptothecin [ADC 8]”, the IC50 in assay [1], in assay [2] and in assay [3] was 50 to 500 nM in each case.

Consider “7-(N-(HS627-AcPEG2-Gly-Lys-PABC), N-(tetrahydropyran-4-yl)amino)ethyl-10,11-methylenedioxycamptothecin [ADC 5]”, for which the IC50 was 50 to 500 nM in assay [1], 50 to 500 nM in assay [2] and more than 250 nM in assay [3].

With “7-(N-(IP140B-Qx-PEG2-Gly-Lys-PABC), N-(tetrahydropyran-4-yl)amino)ethyl-10,11-methylenedioxycamptothecin [ADC 10]”, the results for the IC50 in assay [1], in assay [2] and in assay [3] were less than 5 nM, less than 5 nM and 5 to 50 nM, respectively.

As for “7-(N-(HS627-mPEG2-Gly-Lys-PABC), N-(tetrahydropyran-4-yl)amino)ethyl-10,11-methylenedioxycamptothecin [ADC 3]”, the 50% inhibitory concentration (IC50) in assay [1], in assay [2] and in assay [3] was 5 to 50 nM throughout.

Consider “7-(N-(IP140B-Ac-PEG2-Gly-Lys-PABC), N-((S)-tetrahydrofuran-3-yl)amino)ethyl-10,11-methylenedioxycamptothecin [ADC 16]”, for which the half-maximal inhibitory concentration (IC50) in assay [1], in assay [2] and in assay [3] was 50 to 500 nM each time.

Turning to “7-(N-(HS627-AcPEG4-Gly-Lys-PABC), N-(tetrahydropyran-4-yl)amino)ethyl-10,11-methylenedioxycamptothecin [ADC 7]”, the IC50 in assay [1] is 50 to 500 nM; in assay [2], 50 to 500 nM; in assay [3] it was more than 250 nM.

For the substance “7-(N-(HS627-Ac-PEG2-Gly-Lys-PABC), N-((R)-tetrahydrofuran-3-yl)amino)ethyl-10,11-methylenedioxycamptothecin [ADC 13]”, the concentration for half-maximal inhibition (IC50) in assay [1], in assay [2] and in assay [3] was 50 to 500 nM in each case.

On to “7-(N-(IP140B-mPEG2-Gly-Lys-PABC), N-(tetrahydropyran-4-yl)amino)ethyl-10,11-methylenedioxycamptothecin [ADC 4]”, for which the half-maximal inhibitory concentration (IC50) in assay [1], in assay [2] and in assay [3] was 5 to 50 nM throughout.

With “7-(N-(IP140B-Qx-PEG2-Gly-Lys-PABC), N-((R)-tetrahydrofuran-3-yl)amino)ethyl-10,11-methylenedioxycamptothecin [ADC 12]”, the values for the half-maximal inhibitory concentration (IC50) in assay [1], in assay [2] and in assay [3] were 5 to 50 nM, less than 5 nM and 5 to 50 nM, respectively.

As for “7-(N-(IP140B-AcPEG2-Gly-Lys-PABC), N-(tetrahydropyran-4-yl)amino)ethyl-10,11-methylenedioxycamptothecin [ADC 6]”, the values for the IC50 in assay [1], in assay [2] and in assay [3] were 50 to 500 nM, 5 to 50 nM and 5 to 50 nM, respectively.

By IC50 is commonly meant the point on the concentration scale where inhibition reaches its midpoint. A higher IC50 goes with weaker potency.
